Source: patent US4670258A, “Storable prepackaged aqueous solutions of vancomycin” (Vanderbilt University, priority 1984, dated 1987)
Like-named read-outs stand apart in the source and are kept apart here.

Assays:
[1] = no additive, HPLC
Procedure: (§1) Solutions containing vancomycin (1 mmol) and peptide (either 1 mmol or 2 mmol) in a total volume of 2 ml (pH 4.1-4.2) were placed in screw-capped test tubes and heated at 80° C. for 17 hr. At the end of the reaction time aliquots of the reaction mixture were analyzed for vancomycin and its degradation products, CDP-I-Major (CDP-I-M) and CDP-I-minor (CDP-I-m), by HPLC (Harris, Kopecka and Harris (1983), J. Am. Chem. Soc. 105: 6915-6922).

[2] = cited from earlier work
Staphylococcus = settings: cited from earlier work
physchem = settings: water, pH 4.15
Procedure: as §1

[3] = Peptide binding to vancomycin studied by UV spectroscopy
Excerpt: when studied by UV spectroscopy. The binding constants for the other

Procedure for B. subtilis: The protection of antibiotic activity of vancomycin by binding peptide is illustrated by the following experiment. Solutions containing vancomycin (2 mmol) and peptide 4 mmol) in a total volume of 1 ml (pH 4.40) were placed in screw-capped test tubes and heated at 80° C. for 66 h. The residual antibiotic activity was measured by the disc diffusion technique with B. subtilis as the test organism (Coller and Gralnick (1977), J. Clinical Investigation 60: 302-312; Crossley, Rotschafer, Chern, Mead and Zaske (1980), Antimicrob. Agents and Chemother. 17: 654-657).
Vancomycin-peptide solutions were prepared as in the previous experiments and steam sterilized (15 psi) for 30 min. Antibiotic activity was measured as in Example II.

For `CN[C@H](CC(C)C)C(=O)N[C@H]1C(=O)N[C@@H](CC(N)=O)C(=O)N[C@H]2C(=O)N[C@H]3C(=O)N[C@H](C(=O)N[C@H](C(=O)O)c4cc(O)cc(O)c4-c4cc3ccc4O)[C@H](O)c3ccc(c(Cl)c3)Oc3cc2cc(c3O[C@@H]2O[C@H](CO)[C@@H](O)[C@H](O)[C@H]2O[C@H]2C[C@](C)(N)[C@H](O)[C@H](C)O2)Oc2ccc(cc2Cl)[C@H]1O` [Vancomycin], the “% Vancomycin remaining (unheated control)” value [1] was 92%, the “% Activity (unheated)” value (B. subtilis; Table II, disc diffusion) was 100% and the “% Activity (unheated)” value (B. subtilis; Table III, disc diffusion) was 100%. For the same compound, the “% Activity (heated)” value (B. subtilis; heated 80° C. for 66 h, pH 4.40, disc diffusion) was 25%, the “% Activity (steam sterilized)” value (B. subtilis; steam sterilized (15 psi) for 30 min, disc diffusion) was 58% and the “storage stability in aqueous solution, refrigerated” value ([2]; refrigeration temperatures (viz. 5° C.)) was “can be stored for several weeks”. For the same compound, the “potency and pH change in aqueous solution on storage” value ([2]; room temperature or prolonged storage under refrigeration) was “potency is lost and autogenous pH changes occur”, the “effectiveness against Staphylococcus” value (Staphylococcus) was “particularly effective” and the remaining at 17 h (physchem) was 49%.
In the case of `CC(=O)N[C@H](C)C(=O)NCCC(=O)O` [Ac--D-ala-β-ala], the “measurable binding to vancomycin” value [3] is reported as “does not exhibit any measurable binding”.
